Source: patent US10294248B2, “Beta-lactamase inhibitors” (VenatoRx Pharmaceuticals, Inc., priority 2013, dated 2019)

Experiments:
[1] = molecular target: T1, SHV-5 β-lactamase (Class A ESBL) (Klebsiella pneumoniae, UniProt P0A3M1); assay: β-Lactamase inhibition, SHV-5; format: biochemical
T1 construct: made in house; host or cells: E. coli BL21(DE3)
Procedure, shortened: (§1)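 Untagged enzyme from E. coli BL21(DE3), purified by Capto S then Superdex 75; 15 min 37 °C preincubation with inhibitor; KPC-2 read with imipenem at 300 nm, SHV-5 with cefotaxime at 260 nm, OXA-1 with nitrocefin 100 μM final at 486 nm; 10 min kinetic read; IC50 vs uninhibited wells.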

[2] = molecular target: T2, KPC-2 β-lactamase (Class A carbapenemase) (Klebsiella pneumoniae, UniProt Q9F663); assay: β-Lactamase inhibition, KPC-2; format: biochemical; settings: imipenem substrate, 300 nm; 15 min preincubation at 37° C., PBS pH 7.4
T2 construct: made in house; host or cells: E. coli BL21(DE3)
Procedure, shortened: as §1

[3] = molecular target: T3, VIM-2 metallo-β-lactamase (Class B) (Pseudomonas aeruginosa, UniProt Q9K2N0); assay: β-Lactamase inhibition, VIM-2; format: biochemical; settings: nitrocefin 100 μM, 486 nm; 15 min preincubation at 37° C., PBS pH 7.4
T3 construct: made in house; host or cells: E. coli BL21(DE3)
Procedure, shortened: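 Nitrocefin hydrolysis (100 μM final, A486 read for 10 min) by purified VIM-2 after a 15-min, 37° C enzyme–inhibitor preincubation. IC50 is the concentration halving initial hydrolysis rate, derived from percent inhibition against no-inhibitor wells.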

[4] = molecular target: T4, p99 AmpC β-lactamase (Class C) (Enterobacter cloacae, UniProt P05364); assay: β-Lactamase inhibition, p99 AmpC; format: biochemical
T4 construct: made in house; host or cells: E. coli BL21(DE3)

[5] = molecular target: T5, OXA-1 β-lactamase (Class D oxacillinase) (Escherichia coli, UniProt P13661); assay: β-Lactamase inhibition, OXA-1; format: biochemical; settings: nitrocefin 100 μM, 486 nm; 15 min preincubation at 37° C., PBS pH 7.4
T5 construct: made in house; host or cells: E. coli BL21(DE3)
Procedure, shortened: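 Compounds are mixed with purified, untagged recombinant β-lactamase and held 15 min at 37 °C. Substrate is then added: nitrocefin (100 μM final) for OXA-1, imipenem for KPC-2, cefotaxime for SHV-5. Absorbance is followed immediately, and percent inhibition per concentration gives the IC50.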

[6] = test system: E. coli ESBL4 expressing CTX-M-15; assay: Broth microdilution MIC, E. coli ESBL4 CTX-M-15; format: cell-based; settings: fixed 4 μg/mL ceftazidime; CAMHB, 16-20 hours at 37° C.
Procedure, shortened: (§2)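 Following CLSI broth microdilution, β-lactamase-producing strains grown 3–5 h were exposed in CAMHB to 2-fold dilutions of test compound (32 to 0.25 μg/mL final). A static 4 μg/mL β-lactam overlay was added. After 16–20 h at 37° C, MIC was scored by eye.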

[7] = test system: E. cloacae 144200 expressing Class C P99 AmpC; assay: Broth microdilution MIC, E. cloacae 144200 p99 AmpC; format: cell-based; settings: fixed 4 μg/mL ceftazidime; CAMHB, 16-20 hours at 37° C.
Procedure, shortened: as §2

[8] = test system: K. pneumoniae 156319 expressing KPC-3; assay: Broth microdilution MIC, K. pneumoniae 156319 KPC-3; format: cell-based; settings: fixed 4 μg/mL meropenem; CAMHB, 16-20 hours at 37° C.
Procedure, shortened: as §2

[9] = test system: P. aeruginosa Ps296 expressing VIM-2; assay: Broth microdilution MIC, P. aeruginosa Ps296 VIM-2; format: cell-based; settings: fixed 4 μg/mL meropenem; CAMHB, 16-20 hours at 37° C.
Procedure, shortened: as §2

[10] = test system: K. pneumoniae A-1797 expressing KPC-2 and VIM-4; assay: Broth microdilution MIC, K. pneumoniae A-1797 KPC-2/VIM-4; format: cell-based; settings: fixed 4 μg/mL meropenem; CAMHB, 16-20 hours at 37° C.
Procedure, shortened: as §2

[11] = test system: S. aureus MSSA-7 producing penicillinase PC-1; assay: Broth microdilution MIC, S. aureus MSSA-7 PC-1; format: cell-based; settings: fixed 4 μg/mL piperacillin; CAMHB, 16-20 hours at 37° C.
Procedure, shortened: as §2

T1 sequence (P0A3M1 22-286): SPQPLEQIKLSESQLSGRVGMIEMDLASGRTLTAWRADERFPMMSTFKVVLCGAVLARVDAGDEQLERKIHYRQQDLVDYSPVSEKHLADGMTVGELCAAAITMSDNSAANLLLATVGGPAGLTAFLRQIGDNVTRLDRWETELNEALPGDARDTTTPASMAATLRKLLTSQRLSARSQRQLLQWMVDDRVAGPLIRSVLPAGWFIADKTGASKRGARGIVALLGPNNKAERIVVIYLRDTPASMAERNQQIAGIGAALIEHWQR
T2 sequence (Q9F663 25-293, looked up): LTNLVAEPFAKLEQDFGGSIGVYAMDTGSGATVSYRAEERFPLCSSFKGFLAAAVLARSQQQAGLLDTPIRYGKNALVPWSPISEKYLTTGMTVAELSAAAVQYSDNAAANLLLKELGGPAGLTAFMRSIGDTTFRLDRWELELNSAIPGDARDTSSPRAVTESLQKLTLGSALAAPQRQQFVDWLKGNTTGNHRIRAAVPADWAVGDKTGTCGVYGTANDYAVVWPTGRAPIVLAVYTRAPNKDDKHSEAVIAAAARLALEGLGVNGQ
T5 sequence (P13661 26-276): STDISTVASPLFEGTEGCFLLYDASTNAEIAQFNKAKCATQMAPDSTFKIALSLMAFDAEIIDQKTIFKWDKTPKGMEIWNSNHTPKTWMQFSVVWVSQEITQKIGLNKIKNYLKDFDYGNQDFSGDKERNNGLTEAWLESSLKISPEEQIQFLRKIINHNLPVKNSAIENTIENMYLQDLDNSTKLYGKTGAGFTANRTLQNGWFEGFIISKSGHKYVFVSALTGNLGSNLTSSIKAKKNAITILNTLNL
T4 sequence (P05364 21-381): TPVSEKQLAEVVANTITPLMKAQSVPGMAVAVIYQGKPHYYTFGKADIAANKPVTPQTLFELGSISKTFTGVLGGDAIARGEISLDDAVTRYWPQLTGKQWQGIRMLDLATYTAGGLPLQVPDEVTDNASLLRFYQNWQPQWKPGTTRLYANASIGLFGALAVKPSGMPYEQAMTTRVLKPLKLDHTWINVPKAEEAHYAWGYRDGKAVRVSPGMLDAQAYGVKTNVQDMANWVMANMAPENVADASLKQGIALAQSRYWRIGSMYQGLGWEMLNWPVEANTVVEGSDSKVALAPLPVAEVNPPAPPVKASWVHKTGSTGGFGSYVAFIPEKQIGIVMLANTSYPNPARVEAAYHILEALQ

| SMILES | IC50 [1] [µM] | IC50 [2] [µM] | IC50 [3] [µM] | IC50 [4] [µM] | IC50 [5] [µM] | MIC of example compound in presence of fixed β-lactam: Fixed CAZ, E. coli ESBL4 CTX-M-15 [6] | MIC of example compound in presence of fixed β-lactam: Fixed CAZ, E. cl. 144200 p99 AmpC [7] | MIC of example compound in presence of fixed β-lactam: Fixed Mero, K. P. 156319 KPC-3 [8] | MIC of example compound in presence of fixed β-lactam: Fixed Mero, P. aerug. Ps296 VIM-2 [9] | MIC of example compound in presence of fixed β-lactam: Fixed Mero, K. P. A-1797 KPC-2 VIM-4 [10] | MIC of example compound in presence of fixed β-lactam: Fixed Pip, S. aureus MSSA-7 PC-1 [11] |
| --- | --- | --- | --- | --- | --- | --- | --- | --- | --- | --- | --- |
| N[C@@H]1CCCN(CC(=O)N[C@H]2Cc3cccc(C(=O)O)c3OB2O)C1 [Example 10, 3-[2-(R-3-Amino-piperidin-1-yl)-acetylamino]-2-hydroxy-3,4-dihydro-2H-benzo[e][1,2]oxaborinine-8-carboxylic acid] | < 0.1 | 0.1 to 1 | 1 to 10 | < 0.1 | 0.1 to 1 | C (the MIC in the presence of <4 μg/mL of a β-lactamase inhibitor) | C (the MIC in the presence of <4 μg/mL of a β-lactamase inhibitor) | C (the MIC in the presence of <4 μg/mL of a β-lactamase inhibitor) | A (an MIC of the fixed β-lactam antibiotic in the presence of >32 μg/mL of a β-lactamase inhibitor) | C (the MIC in the presence of <4 μg/mL of a β-lactamase inhibitor) | B (the MIC in the presence of between 8 and 32 μg/mL of a β-lactamase inhibitor) |
| N[C@H]1CCCN(CC(=O)N[C@H]2Cc3cccc(C(=O)O)c3OB2O)C1 [Example 11, 3-[2-(S-3-Amino-piperidin-1-yl)-acetylamino]-2-hydroxy-3,4-dihydro-2H-benzo[e][1,2]oxaborinine-8-carboxylic acid] | < 0.1 | 0.1 to 1 | 1 to 10 | < 0.1 | 0.1 to 1 | C (the MIC in the presence of <4 μg/mL of a β-lactamase inhibitor) | C (the MIC in the presence of <4 μg/mL of a β-lactamase inhibitor) | C (the MIC in the presence of <4 μg/mL of a β-lactamase inhibitor) | A (an MIC of the fixed β-lactam antibiotic in the presence of >32 μg/mL of a β-lactamase inhibitor) | A (an MIC of the fixed β-lactam antibiotic in the presence of >32 μg/mL of a β-lactamase inhibitor) | A (an MIC of the fixed β-lactam antibiotic in the presence of >32 μg/mL of a β-lactamase inhibitor) |
| O=C(CN1CCC(O)CC1)N[C@H]1Cc2cccc(C(=O)O)c2OB1O [Example 12, 2-Hydroxy-3-[2-(4-hydroxy-piperidin-1-yl)-acetylamino]-3,4-dihydro-2H-benzo[e][1,2]oxaborinine-8-carboxylic acid] | < 0.1 | < 0.1 | 0.1 to 1 | < 0.1 | < 0.1 | C (the MIC in the presence of <4 μg/mL of a β-lactamase inhibitor) | C (the MIC in the presence of <4 μg/mL of a β-lactamase inhibitor) | C (the MIC in the presence of <4 μg/mL of a β-lactamase inhibitor) | B (the MIC in the presence of between 8 and 32 μg/mL of a β-lactamase inhibitor) | B (the MIC in the presence of between 8 and 32 μg/mL of a β-lactamase inhibitor) | C (the MIC in the presence of <4 μg/mL of a β-lactamase inhibitor) |
| O=C(CN1CCCNCC1)N[C@H]1Cc2cccc(C(=O)O)c2OB1O [Example 13, 3-(2-[1,4]Diazepan-1-yl-acetylamino)-2-hydroxy-3,4-dihydro-2H-benzo[e][1,2]oxaborinine-8-carboxylic acid] | 0.1 to 1 | 1 to 10 | 10 to 100 | < 0.1 | 0.1 to 1 | C (the MIC in the presence of <4 μg/mL of a β-lactamase inhibitor) | C (the MIC in the presence of <4 μg/mL of a β-lactamase inhibitor) | C (the MIC in the presence of <4 μg/mL of a β-lactamase inhibitor) | B (the MIC in the presence of between 8 and 32 μg/mL of a β-lactamase inhibitor) | B (the MIC in the presence of between 8 and 32 μg/mL of a β-lactamase inhibitor) | C (the MIC in the presence of <4 μg/mL of a β-lactamase inhibitor) |
| CNC1CCN(CC(=O)N[C@H]2Cc3cccc(C(=O)O)c3OB2O)CC1 [Example 14, 2-Hydroxy-3-[2-(4-methylamino-piperidin-1-yl)-acetylamino]-3,4-dihydro-2H-benzo[e][1,2]oxaborinine-8-carboxylic acid] | 0.1 to 1 | 0.1 to 1 | 1 to 10 | < 0.1 | 0.1 to 1 | C (the MIC in the presence of <4 μg/mL of a β-lactamase inhibitor) | C (the MIC in the presence of <4 μg/mL of a β-lactamase inhibitor) | C (the MIC in the presence of <4 μg/mL of a β-lactamase inhibitor) | B (the MIC in the presence of between 8 and 32 μg/mL of a β-lactamase inhibitor) | B (the MIC in the presence of between 8 and 32 μg/mL of a β-lactamase inhibitor) | C (the MIC in the presence of <4 μg/mL of a β-lactamase inhibitor) |
| O=C(CN1CCN(c2nccs2)CC1)N[C@H]1Cc2cccc(C(=O)O)c2OB1O [Example 15, 2-Hydroxy-3-[2-(4-thiazol-2-yl-piperazin-1-yl)-acetylamino]-3,4-dihydro-2H-benzo[e][1,2]oxaborinine-8-carboxylic acid] | 0.1 to 1 | 1 to 10 | 1 to 10 | < 0.1 | 0.1 to 1 | C (the MIC in the presence of <4 μg/mL of a β-lactamase inhibitor) | C (the MIC in the presence of <4 μg/mL of a β-lactamase inhibitor) | C (the MIC in the presence of <4 μg/mL of a β-lactamase inhibitor) | C (the MIC in the presence of <4 μg/mL of a β-lactamase inhibitor) | B (the MIC in the presence of between 8 and 32 μg/mL of a β-lactamase inhibitor) | C (the MIC in the presence of <4 μg/mL of a β-lactamase inhibitor) |
| NCCN1CCN(CC(=O)N[C@H]2Cc3cccc(C(=O)O)c3OB2O)CC1 [Example 16, 3-{2-[4-(2-Amino-ethyl)-piperazin-1-yl]-acetylamino}-2-hydroxy-3,4-dihydro-2H-benzo[e][1,2]oxaborinine-8-carboxylic acid] | < 0.1 | 0.1 to 1 | 1 to 10 | < 0.1 | < 0.1 | C (the MIC in the presence of <4 μg/mL of a β-lactamase inhibitor) | C (the MIC in the presence of <4 μg/mL of a β-lactamase inhibitor) | C (the MIC in the presence of <4 μg/mL of a β-lactamase inhibitor) | C (the MIC in the presence of <4 μg/mL of a β-lactamase inhibitor) | B (the MIC in the presence of between 8 and 32 μg/mL of a β-lactamase inhibitor) | C (the MIC in the presence of <4 μg/mL of a β-lactamase inhibitor) |
